Test results published in patent US7176228B2, “Pyrazole biphenylcarboxamides” (Bayer Cropscience AG, priority 2000, dated 2007).

assay: logP determination by HPLC on a reversed-phase column (EEC Directive 79/831 Annex V.A8); type: physicochemical; settings: reversed-phase C18 HPLC column, reversed-phase column (C 18), 43° C., acidic range (a): 0.1% aqueous phosphoric acid, acetonitrile gradient 10% to 90%
Protocol: [table] Calibration was carried out using unbranched alkan-2-ones (having 3 to 16 carbon atoms) with known logP values (determination of the logP values by the retention times using linear interpolation between two successive alkanones).

| chromatographic logP | SMILES |
| --- | --- |
| 3.42 | CO/N=C/c1cccc(-c2ccccc2NC(=O)c2sc(C)nc2C(F)(F)F)c1 [Example 2] |
| 4.65 | CCCCO/N=C\c1ccc(-c2ccccc2NC(=O)c2sc(C)nc2C(F)(F)F)cc1 [Example 3] |
| 4.23 | Cc1nc(C(F)(F)F)c(C(=O)Nc2ccccc2-c2ccc(/C=N\OC(C)C)cc2)s1 [Example 5] |
| 3.24 | CO/N=C\c1ccc(-c2ccccc2NC(=O)c2c(C)nn(C)c2Cl)cc1 [Example 17] |
| 5.1 | CO/N=C\c1ccc(-c2ccccc2NC(=O)c2cn(C)cc2C)cc1 [Example 19] |
| 4.26 | CCCCO/N=C/c1ccc(-c2ccccc2NC(=O)c2cn(C)nc2C(F)(F)F)cc1 [Example 22] |
| 4.26 | CCCO/N=C/c1ccc(-c2ccccc2NC(=O)c2sc(C)nc2C(F)(F)F)cc1 [Example 23] |
| 3.86 | CCCO/N=C/c1ccc(-c2ccccc2NC(=O)c2cn(C)nc2C(F)(F)F)cc1 [Example 28] |
| 2.78 | Cc1nc(C(F)(F)F)c(C(=O)Nc2ccccc2-c2ccc(/C=N\O)cc2)s1 [Example 30] |
| 3.84 | CO/N=C/c1ccc(-c2ccccc2NC(=O)c2sc(N(C)C)nc2C(F)(F)F)cc1 [Example 32] |
| 4.12 | CO/N=C/c1ccc(-c2ccccc2NC(=O)c2cccnc2OC)cc1 [Example 33] |
| 4.73 | CO/N=C/c1ccc(-c2ccccc2NC(=O)c2ccc(OC)nc2OC)cc1 [Example 34] |
| 2.04 | CO/N=C/c1ccc(-c2ccccc2NC(=O)c2cccnc2C)cc1 [Example 35] |
| 3.75 | CO/N=C/c1ccc(-c2ccccc2NC(=O)c2ccccc2C(F)(F)F)cc1 [Example 36] |
| 4.08 | CO/N=C/c1ccc(-c2ccccc2NC(=O)c2sc(Cl)nc2C(F)(F)F)cc1 [Example 37] |
| 3.59 | CO/N=C/c1ccc(-c2ccccc2NC(=O)c2ccccc2Cl)cc1 [Example 38] |
| 3.61 | CO/N=C/c1ccc(-c2ccccc2NC(=O)c2ccccc2Br)cc1 [Example 39] |
| 3.56 | CO/N=C/c1ccc(-c2ccccc2NC(=O)c2ccccc2C)cc1 [Example 40] |
| 3.19 | Cn1cc(C(=O)Nc2ccccc2-c2ccc(/C=N\O)cc2)c(C(F)(F)F)n1 [Example 41] |
| 3.47 | CO/N=C/c1ccc(-c2ccccc2NC(=O)c2ccoc2C)cc1 [Example 42] |
| 3.47 | CO/N=C/c1cccc(-c2ccccc2NC(=O)c2ccoc2C)c1 [Example 43] |
| 3.76 | CO/N=C/c1cccc(-c2ccccc2NC(=O)c2ccccc2C(F)(F)F)c1 [Example 44] |
| 3.73 | CO/N=C/c1ccc(-c2ccccc2NC(=O)c2ccccc2I)cc1 [Example 45] |

| chromatographic logP | SMILES |
| --- | --- |
| 3.73 | CO/N=C/c1cccc(-c2ccccc2NC(=O)c2ccccc2I)c1 [Example 46] |
| 3.86 | CO/N=C/c1ccc(-c2ccccc2NC(=O)c2sccc2C)cc1 [Example 47] |
| 3.84 | CO/N=C/c1cccc(-c2ccccc2NC(=O)c2sccc2C)c1 [Example 48] |
| 3.54 | CO/N=C/c1ccc(-c2ccccc2NC(=O)c2cn(C)nc2C(F)(F)F)cc1Cl [Example 49] |
| 3.36 | CO/N=C\c1cc(-c2ccccc2NC(=O)c2cn(C)nc2C(F)(F)F)ccc1/C=N/OC [Example 50] |
| 3.78 | CO/N=C/c1ccc(-c2c(C)cccc2NC(=O)c2sc(C)nc2C(F)(F)F)cc1 [Example 51] |
| 3.25 | CO/N=C/c1cccc(-c2ccccc2NC(=O)c2cn(C)nc2C(F)(F)F)c1 [Example 52] |
| 3.75 | CO/N=C/c1ccc(-c2ccccc2NC(=O)C2=C(C)OCCS2)cc1 [Example 53] |
| 3.2 | CO/N=C/c1ccc(-c2ccccc2NC(=O)c2ccco2)cc1 [Example 54] |
| 3.2 | CO/N=C/c1cccc(-c2ccccc2NC(=O)c2ccco2)c1 [Example 55] |
| 4.39 | CO/N=C/c1ccc(-c2ccccc2NC(=O)c2sccc2Br)cc1 [Example 56] |
| 4.39 | CO/N=C/c1cccc(-c2ccccc2NC(=O)c2sccc2Br)c1 [Example 57] |
| 3.37 | CO/N=C/c1cccc(-c2ccccc2NC(=O)c2c(C)nn(C)c2Cl)c1 [Example 58] |
| 3.64 | CO/N=C/c1cccc(-c2ccccc2NC(=O)C2=C(C)OCCS2)c1 [Example 59] |
| 3.26 | CO/N=C/c1ccc(-c2ccccc2NC(=O)c2sc(C)nc2C(F)F)cc1 [Example 60] |
| 3.26 | CO/N=C/c1cccc(-c2ccccc2NC(=O)c2sc(C)nc2C(F)F)c1 [Example 61] |
| 3.99 | CO/N=C/c1ccc(-c2ccccc2NC(=O)c2ccc(C(F)(F)F)o2)cc1 [Example 62] |
| 4.02 | CO/N=C/c1cccc(-c2ccccc2NC(=O)c2ccc(C(F)(F)F)o2)c1 [Example 63] |
| 3.94 | CO/N=C/c1ccc(-c2ccccc2NC(=O)c2cc(C)oc2C(F)(F)F)cc1 [Example 64] |
| 3.97 | CO/N=C/c1cccc(-c2ccccc2NC(=O)c2cc(C)oc2C(F)(F)F)c1 [Example 65] |
| 3.82 | CO/N=C/c1ccc(-c2ccccc2NC(=O)c2cn(C)cc2C(C)C)cc1 [Example 66] |
| 3.75 | CO/N=C/c1ccc(-c2ccccc2NC(=O)c2sc(Cl)nc2C)cc1 [Example 67] |
| 3.75 | CO/N=C/c1cccc(-c2ccccc2NC(=O)c2sc(Cl)nc2C)c1 [Example 68] |

| chromatographic logP | SMILES |
| --- | --- |
| 4.45 | CO/N=C/c1cccc(-c2ccccc2NC(=O)c2nc(C)oc2C(F)(F)F)c1 [Example 70] |
| 3.78 | CO/N=C/c1ccc(-c2ccccc2NC(=O)c2ccc(Br)o2)cc1 [Example 71] |
| 3.8 | CO/N=C/c1cccc(-c2ccccc2NC(=O)c2ccc(Br)o2)c1 [Example 72] |
| 4 | CO/N=C/c1cccc(-c2ccccc2NC(=O)c2sc(N(C)C)nc2C(F)(F)F)c1 [Example 73] |
| 3.95 | CO/N=C/c1ccc(-c2ccccc2NC(=O)c2sc(C)nc2C(F)(F)F)cc1Cl [Example 74] |
| 4.77 | CCCCO/N=C(/C)c1ccc(-c2ccccc2NC(=O)c2sc(C)nc2C(F)(F)F)cc1 [Example 77] |
| 3.68 | CCc1nn(C)c(Cl)c1C(=O)Nc1ccccc1-c1ccc(/C=N/OC)cc1 [Example 95] |
| 3.72 | CCc1nn(C)c(Cl)c1C(=O)Nc1ccccc1-c1cccc(/C=N/OC)c1 [Example 96] |
| 3.76 | CO/N=C/c1ccc(-c2ccccc2NC(=O)c2c(C3CC3)nn(C)c2Cl)cc1 [Example 97] |
| 3.81 | CO/N=C/c1cccc(-c2ccccc2NC(=O)c2c(C3CC3)nn(C)c2Cl)c1 [Example 98] |
| 4.67 | CO/N=C/c1ccc(-c2ccccc2NC(=O)c2cc(Cl)sc2Cl)cc1 [Example 99] |
| 4.72 | CO/N=C/c1cccc(-c2ccccc2NC(=O)c2cc(Cl)sc2Cl)c1 [Example 100] |
| 3.26 | CO/N=C/c1ccc(-c2ccccc2NC(=O)c2ccc([N+](=O)[O-])o2)cc1 [Example 101] |
| 3.26 | CO/N=C/c1cccc(-c2ccccc2NC(=O)c2ccc([N+](=O)[O-])o2)c1 [Example 102] |
| 3.87 | CCn1nc(C)c(C(=O)Nc2ccccc2-c2ccc(/C=N/OC)cc2)c1Cl [Example 103] |
| 3.1 | CO/N=C/c1ccc(-c2ccccc2NC(=O)c2ccsc2)cc1 [Example 108] |
| 3.58 | CO/N=C/c1ccc(-c2ccccc2NC(=O)c2ccsc2C)cc1 [Example 110] |
| 3.59 | CO/N=C/c1cccc(-c2ccccc2NC(=O)c2ccsc2C)c1 [Example 111] |
| 3.21 | CO/N=C/c1ccc(-c2ccccc2NC(=O)c2cn(C)nc2C(F)(F)F)cc1F [Example 112] |
| 2.43 | CO/N=C/c1ccc(-c2ccccc2NC(=O)c2cccnc2O)cc1 [Example 113] |
| 3 | CO/N=C/c1ccc(-c2ccccc2NC(=O)c2cn(C)nc2C(F)F)cc1F [Example 114] |
| 4.22 | CCCO/N=C/c1ccc(-c2ccccc2NC(=O)c2c(C)nn(C)c2Cl)cc1 [Example 118] |
